Experimental findings from ChEMBL document CHEMBL4622966, “Synthesis of Novel Ciprofloxacin-Based Hybrid Molecules toward Potent Antimalarial Activity” (ACS Med Chem Lett, 2020) are described below.

Each structure is given as a SMILES string. Activity calls are given as the source filed them. The rule behind the calls is not given here.

In data set [1] the test system is Plasmodium falciparum. Nature of the data set: Antimalarial activity against CQ-sensitive Plasmodium falciparum 3D7 infected in human erythrocytes after 48 hrs by SYBR Green1 dye based fluorescence assay. As to conditions: 3D7, 48 h. The data set is classed as functional, organism-based.
A short description of data set [2]: Lipophilicity, log P of the compound. As to conditions: octanol/water. The data set is classed as physicochemical.
For data set [3], the system named is Erythrocyte. Nature of the data set: Hemolytic activity against human RBC infected with CQ-resistant Plasmodium falciparum W2 at 10 to 45 uM. The format is ADME, cell-based.
In data set [4] the test system is Erythrocyte. Briefly: Hemolytic activity against human RBC infected with CQ-sensitive Plasmodium falciparum 3D7 at 10 to 45 uM. The format is ADME, cell-based.
For data set [5], the system named is Erythrocyte. Briefly: Hemolytic activity against uninfected human RBC at 10 to 45 uM. The format is ADME, cell-based.
For data set [6], the system named is Plasmodium falciparum. Nature of the data set: Antimalarial activity against CQ-sensitive Plasmodium falciparum 3D7 infected in human erythrocytes after 96 hrs by SYBR Green1 dye based fluorescence assay. The data set is classed as functional, organism-based. Particulars: 3D7, 96 h.
The subject of data set [7] is Plasmodium falciparum. Briefly: Antimalarial activity against CQ-sensitive Plasmodium falciparum 3D7 assessed as inhibition of parasite growth. The data set is classed as functional, organism-based.
Data set [8] has as its system Plasmodium falciparum. Briefly: Antimalarial activity against CQ-resistant Plasmodium falciparum NF54-R assessed as inhibition of parasite growth. The data set is classed as functional, organism-based.
The test system of data set [9] is Heme. Nature of the data set: Binding affinity to monomeric heme after 24 hrs by UV-Visible Spectroscopic analysis.
For data set [10], the system named is Plasmodium falciparum. Nature of the data set: Antiplasmodial activity against Plasmodium falciparum infected in human erythrocytes assessed as reduction in hemozoin size at 30 nM after 48 hrs by giemsa staining based light microscopic analysis. The data set is classed as functional, organism-based.
Data set [11] has as its system Plasmodium falciparum. Briefly: Potency index, ratio of ciprofloxacin IC50 to test compound IC50 for antimalarial activity against CQ-resistant Plasmodium falciparum W2 infected in human erythrocytes after 48 hrs by SYBR Green1 dye based fluorescence assay. The data set is classed as functional.
The subject of data set [12] is Plasmodium falciparum. Nature of the data set: Resistance index, ratio of IC50 for antimalarial activity against CQ-resistant Plasmodium falciparum W2 infected in human erythrocytes after 48 hrs to IC50 for antimalarial activity against CQ-sensitive Plasmodium falciparum 3D7 infected in human erythrocytes after 48 hrs by SYBR Green1 dye based fluorescence assay. The data set is classed as functional.

In data set [13] the test system is Plasmodium falciparum. Briefly: Potency index, ratio of chloroquine IC50 to test compound IC50 for antimalarial activity against CQ-resistant Plasmodium falciparum W2 infected in human erythrocytes after 48 hrs by SYBR Green1 dye based fluorescence assay. The data set is classed as functional.
The test system of data set [14] is Plasmodium falciparum. Briefly: Antimalarial activity against CQ-resistant Plasmodium falciparum W2 infected in human erythrocytes after 96 hrs by SYBR Green1 dye based fluorescence assay. The format is functional, organism-based. Particulars: W2, 96 h.
Data set [15] has as its system Plasmodium falciparum. Briefly: Antimalarial activity against CQ-resistant Plasmodium falciparum W2 infected in human erythrocytes after 48 hrs by SYBR Green1 dye based fluorescence assay. The format is functional, organism-based. Particulars: W2, 48 h.
The test system of data set [16] is Plasmodium falciparum. Briefly: Potency index, ratio of ciprofloxacin IC50 to test compound IC50 for antimalarial activity against CQ-sensitive Plasmodium falciparum 3D7 infected in human erythrocytes after 96 hrs by SYBR Green1 dye based fluorescence assay. The data set is classed as functional.
Data set [17] deals with Plasmodium falciparum. Nature of the data set: Potency index, ratio of ciprofloxacin IC50 to test compound IC50 for antimalarial activity against CQ-sensitive Plasmodium falciparum 3D7 infected in human erythrocytes after 48 hrs by SYBR Green1 dye based fluorescence assay. The format is functional.
Data set [18] relates to Plasmodium falciparum. Nature of the data set: Potency index, ratio of ciprofloxacin IC50 to test compound IC50 for antimalarial activity against CQ-resistant Plasmodium falciparum W2 infected in human erythrocytes after 96 hrs by SYBR Green1 dye based fluorescence assay. The data set is classed as functional.
Data set [19] concerns Plasmodium falciparum. Briefly: Antimalarial activity against Plasmodium falciparum infected in human erythrocytes assessed as parasitemia at 1 to 15 uM after 96 hrs by SYBR Green1 dye based fluorescence assay. The format is functional, organism-based.
Data set [20] deals with Plasmodium falciparum. Nature of the data set: Antimalarial activity against Plasmodium falciparum infected in human erythrocytes assessed as parasitemia at 1 to 15 uM after 48 hrs by SYBR Green1 dye based fluorescence assay. The data set is classed as functional, organism-based.
The subject of data set [21] is Plasmodium falciparum. Briefly: Binding affinity to Gyrase in Plasmodium falciparum assessed as accumulation of single-stranded DNA binding protein at 15 uM after 96 hrs by Western blot analysis.
Data set [22] relates to Heme. Briefly: Binding affinity to monomeric heme at 100 nM to 4.5 uM after 24 hrs by UV-Visible Spectroscopic analysis.
For data set [23], the system named is Plasmodium falciparum. Briefly: Antimalarial activity against Plasmodium falciparum infected in human erythrocytes assessed as parasitemia at 1 to 10 nM after 48 hrs by SYBR Green1 dye based fluorescence assay. The data set is classed as functional, organism-based.
Data set [24] has as its system Plasmodium falciparum. Nature of the data set: Antimalarial activity against Plasmodium falciparum infected in human erythrocytes assessed as parasitemia at 1 to 10 nM after 96 hrs by SYBR Green1 dye based fluorescence assay. The data set is classed as functional, organism-based.
Data set [25] relates to Plasmodium falciparum. Briefly: Antiplasmodial activity against Plasmodium falciparum infected in human erythrocytes assessed as reduction in hemozoin size at 50 to 100 nM after 48 hrs by giemsa staining based light microscopic analysis. The format is functional, organism-based.
The subject of data set [26] is Plasmodium falciparum. Nature of the data set: Antimalarial activity against synchronized ring stage of Plasmodium falciparum infected in human erythrocytes at 50 to 100 nM. The format is functional, organism-based.
The next data set has as its system Escherichia coli. Briefly: Toxicity in Escherichia coli DH10B assessed as growth inhibition at 500 nM to 1 uM after 6 hrs. The data set is classed as organism-based, str. K-12 substr. DH10B. Particulars: in vivo, 0.5 µM.
Data set [27] deals with Plasmodium falciparum. Briefly: Binding affinity to Gyrase in Plasmodium falciparum assessed as accumulation of single-stranded DNA binding protein at 25 nM after 96 hrs by Western blot analysis.
The test system of data set [28] is Plasmodium falciparum. Nature of the data set: Antimalarial activity against synchronized schizont stage of Plasmodium falciparum infected in human erythrocytes at 50 to 100 nM. The data set is classed as functional, organism-based.
The subject of another data set is NIH3T3. Briefly: Cytotoxicity against mouse NIH/3T3 cells up to 10 uM after 72 hrs by MTT assay. The format is cell-based. Particulars: nih3t3, 72 h.

`CCOC(=O)c1cn(C2CC2)c2cc(N3CCN(C(=O)/C=C/c4ccccc4)CC3)c(F)cc2c1=O`: the figures for the IC50 in the data set with Plasmodium falciparum [1] and with Plasmodium falciparum [6] were 9110 nM and 4790 nM, respectively. The lipophilicity (logP) in [2] is 3.81. In addition, the Activity entry in the data set on Erythrocyte [3], in the data set on Erythrocyte [4] and in the data set with Erythrocyte [5] was “Non-Toxic” in each case.
Take `Cc1c(F)c(N2CCNC(C)C2)cc2c1c(=O)c(C(=O)O)cn2C1CC1` (stereo not given) [GREPAFLOXACIN]: the IC50 with Plasmodium falciparum [7] and in the data set on Plasmodium falciparum [8] was more than 10000 nM each time.
For the compound `CCN(CC)CCCC(C)Nc1ccnc2cc(Cl)ccc12` (stereo not given), the Activity entry in the data set on Heme [9] is “Dose-dependent effect”. The result in the data set on Plasmodium falciparum [10] was Active.
As to `CCOC(=O)c1cn(C2CC2)c2cc(N3CCN(c4c5ccc(Cl)cc5nc5ccc(OC)cc45)CC3)c(F)cc2c1=O`, the IC50 in the data set with Plasmodium falciparum [1] turned out to be 359 nM; with Plasmodium falciparum [6], 311 nM. In addition, the logP in data set [2] is 6.31. Besides, the Activity entry in the data set on Erythrocyte [3], with Erythrocyte [4] and in the data set with Erythrocyte [5] was “Non-Toxic” in each case.
On to `COc1c(N2C[C@@H]3CCCN[C@@H]3C2)c(F)cc2c(=O)c(C(=O)O)cn(C3CC3)c12` [MOXIFLOXACIN], for which the IC50 with Plasmodium falciparum [7] and in the data set on Plasmodium falciparum [8] was more than 10000 nM throughout.
As to `CCOC(=O)c1cn(C2CC2)c2cc(N3CCN(S(=O)(=O)c4ccc(C(F)(F)F)cc4)CC3)c(F)cc2c1=O`, the “Ratio IC50” value with Plasmodium falciparum [11] was 200 - 700; in the data set with Plasmodium falciparum [12], 3.88; with Plasmodium falciparum [13], 7; with Plasmodium falciparum [16] it was 1000; in the data set on Plasmodium falciparum [17] it was 1000; in the data set with Plasmodium falciparum [18] it was 200 - 700. In addition, the IC50 with Plasmodium falciparum [1] turned out to be 37.6 nM; with Plasmodium falciparum [14], 33.4 nM; in the data set on Plasmodium falciparum [15] it was 146 nM; in the data set on Plasmodium falciparum [6] it was 14.8 nM. For the same compound, in [2], the logP came out at 4.29. In addition, the Activity result in the data set on Erythrocyte [3], with Erythrocyte [4] and in the data set on Erythrocyte [5] was “Non-Toxic” each time.
With `O=C(O)c1cn(C2CC2)c2cc(N3CCNCC3)c(F)cc2c1=O` [CIPROFLOXACIN], the outcome in the data set on Plasmodium falciparum [19] and in the data set on Plasmodium falciparum [21] was Active. Moreover, the result in the data set with Plasmodium falciparum [20] and in the data set with Heme [22] was inactive. Besides, the half-inhibitory concentration (IC50) is 45400 nM with Plasmodium falciparum [1], 22800 nM in the data set on Plasmodium falciparum [14], 37100 nM in the data set with Plasmodium falciparum [15] and 26300 nM in the data set on Plasmodium falciparum [6].
Consider `COc1c(N2CCNC(C)C2)c(F)cc2c(=O)c(C(=O)O)cn(C3CC3)c12` (stereo not given) [GATIFLOXACIN], for which the half-inhibitory concentration (IC50) in the data set with Plasmodium falciparum [7] and with Plasmodium falciparum [8] was more than 10000 nM each time.
As for `CCOC(=O)c1cn(C2CC2)c2cc(N3CCN(c4ccnc5cc(Cl)ccc45)CC3)c(F)cc2c1=O`, the “Ratio IC50” value is listed as 200 - 700 with Plasmodium falciparum [11]; 2.47 with Plasmodium falciparum [12]; 3 with Plasmodium falciparum [13]; 1000 with Plasmodium falciparum [16]; 1000 in the data set on Plasmodium falciparum [17]; 200 - 700 with Plasmodium falciparum [18]. The outcome in the data set on Plasmodium falciparum [23], in the data set with Plasmodium falciparum [24], in the data set on Plasmodium falciparum [26] and with Plasmodium falciparum [28] was Active. Further, the IC50 worked out at 25.5 nM in the data set with Plasmodium falciparum [1], 30.6 nM in the data set on Plasmodium falciparum [14], 63.2 nM in the data set on Plasmodium falciparum [15] and 13.5 nM with Plasmodium falciparum [6]. For the same compound, the result in the data set with Plasmodium falciparum [25], in the data set with Plasmodium falciparum [27] and in the data set with Heme [22] was inactive. Besides, the logP in [2] was determined as 5.02. Moreover, the Activity entry in the data set with Erythrocyte [3], with Erythrocyte [4], in the data set on Escherichia coli, with Erythrocyte [5] and in the data set with NIH3T3 was “Non-Toxic” each time.
